Test results published in patent US20250230193A1, “CYCLIC COMPOUND HAVING SELECTIVE KRAS INHIBITORY EFFECT ON HRAS AND NRAS” (CHUGAI SEIYAKU KABUSHIKI KAISHA, priority 2022, published 2025).

Tests used:
[1] = target: GDP-bound NRAS wild-type protein (Homo sapiens, UniProt P01111); assay: Binding to NRAS by surface plasmon resonance (SPR), Single Cycle Kinetics; conditions: SPR, GDP-bound NRAS wild-type vs GDP-bound KRAS wild-type
[2] = target: GDP-bound HRAS wild-type protein (Homo sapiens, UniProt P01112); assay: Binding to HRAS by surface plasmon resonance (SPR), Single Cycle Kinetics; conditions: SPR, GDP-bound HRAS wild-type vs GDP-bound KRAS wild-type
Chain of GDP-bound HRAS wild-type protein (P01112 whole entry): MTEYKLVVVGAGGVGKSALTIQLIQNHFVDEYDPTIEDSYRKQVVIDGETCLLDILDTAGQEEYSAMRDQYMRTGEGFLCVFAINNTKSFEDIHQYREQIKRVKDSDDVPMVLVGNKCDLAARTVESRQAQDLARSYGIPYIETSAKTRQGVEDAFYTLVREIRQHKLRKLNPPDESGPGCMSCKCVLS

Chain of GDP-bound NRAS wild-type protein (P01111 whole entry): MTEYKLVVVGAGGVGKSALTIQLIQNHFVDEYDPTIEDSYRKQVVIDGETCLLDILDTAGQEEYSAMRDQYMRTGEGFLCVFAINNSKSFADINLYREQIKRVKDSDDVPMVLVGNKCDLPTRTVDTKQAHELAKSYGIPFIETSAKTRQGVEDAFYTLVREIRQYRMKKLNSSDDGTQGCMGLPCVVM

SMILES: CCOC[C@H]1C(=O)N[C@@H]([C@@H](C)CC)C(=O)N(C)CC(=O)N(C)[C@H]2C/C=C\CCN(C2=O)[C@@H](CC2CCC(F)(F)CC2)C(=O)N(C)CC(=O)N[C@@H](CCc2ccc(C(F)(F)F)c(Cl)c2)C(=O)N2C[C@H](OCC)C[C@H]2C(=O)NC2(CC(C)(C)C2)C(=O)N(C)[C@@H](C(CC)CC)C(=O)N(C)[C@H](C(=O)N(C)C)CC(=O)N1C [PP2460]
- NRAS/KRAS (ratio of KD value with respect to NRAS to KD value with respect to KRAS) [1]: A (a compound having 10 or more and less than 20 is denoted as A)
- HRAS/KRAS (ratio of KD value with respect to HRAS to KD value with respect to KRAS) [2]: A (a compound having 10 or more and less than 20 is denoted as A)

SMILES: CCCOC[C@H]1C(=O)N[C@@H]([C@@H](C)CC)C(=O)N(C)CC(=O)N(C)[C@H]2C/C=C\CCN(C2=O)[C@@H](Cc2ccc(C)cc2)C(=O)N(C)CC(=O)N[C@@H](CCc2ccc(C(F)(F)F)c(OC)c2)C(=O)N2C[C@@H](C)C[C@H]2C(=O)NC2(CC(C)(C)C2)C(=O)N(C)[C@@H](C2CCCC2)C(=O)N(C)[C@H](C(=O)N(C)CC)CC(=O)N1C [PP2461]
- NRAS/KRAS (ratio of KD value with respect to NRAS to KD value with respect to KRAS) [1]: A (a compound having 10 or more and less than 20 is denoted as A)
- HRAS/KRAS (ratio of KD value with respect to HRAS to KD value with respect to KRAS) [2]: A (a compound having 10 or more and less than 20 is denoted as A)

SMILES: CCOC[C@H]1C(=O)N[C@@H]([C@@H](C)CC)C(=O)N(C)CC(=O)N(C)[C@H]2C/C=C\CCN(C2=O)[C@@H](CC2CCC(F)(F)CC2)C(=O)N(C)CC(=O)N[C@@H](CCc2cc(F)c(C(F)(F)F)c(F)c2)C(=O)N2C[C@@H](C)C[C@H]2C(=O)NC2(CC(C)(C)C2)C(=O)N(C)[C@@H](C(CC)CC)C(=O)N(C)[C@H](C(=O)N(C)C)CC(=O)N1C [PP2462]
- NRAS/KRAS (ratio of KD value with respect to NRAS to KD value with respect to KRAS) [1]: A (a compound having 10 or more and less than 20 is denoted as A)
- HRAS/KRAS (ratio of KD value with respect to HRAS to KD value with respect to KRAS) [2]: A (a compound having 10 or more and less than 20 is denoted as A)

SMILES: CCCOC[C@H]1C(=O)N[C@@H]([C@@H](C)CC)C(=O)N(C)CC(=O)N(C)[C@H]2C/C=C\CCN(C2=O)[C@@H](Cc2ccc(C)cc2)C(=O)N(C)CC(=O)N[C@@H](CCc2ccc(C(F)(F)F)c(OC)c2)C(=O)N2C[C@H](OCC)C[C@H]2C(=O)NC2(CC(C)(C)C2)C(=O)N(C)[C@@H](C2CCCC2)C(=O)N(C)[C@H](C(=O)N(C)CC)CC(=O)N1C [PP2463]
- NRAS/KRAS (ratio of KD value with respect to NRAS to KD value with respect to KRAS) [1]: A (a compound having 10 or more and less than 20 is denoted as A)
- HRAS/KRAS (ratio of KD value with respect to HRAS to KD value with respect to KRAS) [2]: A (a compound having 10 or more and less than 20 is denoted as A)

SMILES: CCCOC[C@H]1C(=O)N[C@@H]([C@@H](C)CC)C(=O)N(C)CC(=O)N(C)[C@H]2C/C=C\CCN(C2=O)[C@@H](CC2CCC(F)(F)CC2)C(=O)N(C)CC(=O)N[C@@H](CCc2ccc(C(F)(F)F)c(OC)c2)C(=O)N2C[C@H](OCC)C[C@H]2C(=O)NC2(CC(C)(C)C2)C(=O)N(C)[C@@H](C(CC)CC)C(=O)N(C)[C@H](C(=O)N(C)C)CC(=O)N1C [PP2464]
- NRAS/KRAS (ratio of KD value with respect to NRAS to KD value with respect to KRAS) [1]: A (a compound having 10 or more and less than 20 is denoted as A)
- HRAS/KRAS (ratio of KD value with respect to HRAS to KD value with respect to KRAS) [2]: A (a compound having 10 or more and less than 20 is denoted as A)

SMILES: CCOC[C@H]1C(=O)N[C@@H]([C@@H](C)CC)C(=O)N(C)CC(=O)N(C)[C@H]2C/C=C\CCN(C2=O)[C@@H](Cc2ccc(C)cc2)C(=O)N(C)CC(=O)N[C@@H](CCc2ccc(C(F)(F)F)c(Cl)c2)C(=O)N2C[C@@H](C)C[C@H]2C(=O)NC2(CC(C)(C)C2)C(=O)N(C)[C@@H](C2CCCC2)C(=O)N(C)[C@H](C(=O)N(CC)CC)CC(=O)N1C [PP2465]
- NRAS/KRAS (ratio of KD value with respect to NRAS to KD value with respect to KRAS) [1]: AA (a compound having 20 or more is denoted as AA)
- HRAS/KRAS (ratio of KD value with respect to HRAS to KD value with respect to KRAS) [2]: A (a compound having 10 or more and less than 20 is denoted as A)
